Data: patent US8476197B2, “Aminopropenoates as fungicides” (priority 2009, dated 2013)
Like-named read-outs stand apart in the source and are kept apart here. Marks after values point to notes of the source that are not given here.

| SMILES | Log P (pH 2.7) | Log P (pH 2.3) | Log P (pH 7.5) |
| --- | --- | --- | --- |
| CC(C)C(C)NC(=C(C#N)C(=O)Nc1ccccn1)c1cccnc1Cl (stereo not drawn) [Compound 1516] | 3.21^[a] |  |  |
| CC(C)C(C)NC(=C(C#N)C(=O)NCc1ccccn1)c1cccnc1Cl (stereo not drawn) [Compound 1517] | 1.94^[a] |  |  |
| CC(C)C(C)NC(=C(C#N)C(=O)N1CCOCC1)c1cccnc1Cl (stereo not drawn) [Compound 1518] | 2.58^[a] |  |  |
| CCOC(=O)C(C#N)=C(NC(C)C(C)C)c1cccnc1-c1ccsc1 (stereo not drawn) [Compound 1519] |  | 3.55 | 3.57 |
| CCOC(=O)C(C#N)=C(NC(C)c1ncc(C)s1)c1cccnc1Cl (stereo not drawn) [Compound 1520] | 2.92^[a] |  |  |
| C#CC(NC(=C(C#N)C(=O)OCC)c1cccnc1Cl)C(C)C (stereo not drawn) [Compound 1521] | 3.37^[a] |  |  |
| CCOC(=O)C(C#N)=C(NC(C)[Si](C)(C)C)c1cccnc1Cl (stereo not drawn) [Compound 1522] | 3.87^[a] |  |  |
| CCOC(=O)C(C#N)=C(NC(C)c1c(Cl)cccc1Cl)c1cccnc1Cl (stereo not drawn) [Compound 1523] | 3.73^[a] |  |  |
| CCOC(=O)C(C#N)=C(NC(C)c1csc(C)n1)c1cccnc1Cl (stereo not drawn) [Compound 1524] | 2.84^[a] |  |  |
| CCOC(=O)C(C#N)=C(NC(C)C(C)CC)c1cccnc1Cl (stereo not drawn) [Compound 1525] | 3.76^[a] |  |  |
| CCOC(=O)C(C#N)=C(NCc1ccc(C)c(C)n1)c1cccnc1Cl [Compound 1526] | 1.91^[a] |  |  |
| CCOC(=O)C(C#N)=C(NC(C)C(C)OC)c1cccnc1Cl (stereo not drawn) [Compound 1527] | 2.8^[a] |  |  |
| CCOC(=O)C(C#N)=C(NC(C)c1cncnc1C(F)(F)F)c1cccnc1Cl (stereo not drawn) [Compound 1528] | 2.63^[a] |  |  |
| CCOC(=O)C(C#N)=C(NC(C)c1cn2ccsc2n1)c1cccnc1Cl (stereo not drawn) [Compound 1529] | 2.35^[a] |  |  |
| CCOC(=O)C(C#N)=C(NC(C)c1ccccc1Br)c1cccnc1Cl (stereo not drawn) [Compound 1530] | 3.89^[a] |  |  |
| CCOC(=O)C(C#N)=C(NC(C)C1CCCO1)c1cccnc1Cl (stereo not drawn) [Compound 1531] | 2.71^[a] |  |  |
| CCOC(=O)C(C#N)=C(NC(C)c1ccccc1F)c1cccnc1Cl (stereo not drawn) [Compound 1532] | 3.48^[a] |  |  |
| CCOC(=O)C(C#N)=C(NC(C)C1(C)CC1)c1cccnc1Cl (stereo not drawn) [Compound 1533] | 3.46^[a] |  |  |
| CCOC(=O)C(C#N)=C(NC(C)c1c(C)cccc1C)c1cccnc1Cl (stereo not drawn) [Compound 1534] | 3.96^[a] |  |  |
| CCOC(=O)C(C#N)=C(NC(C)c1c(F)cccc1F)c1cccnc1Cl (stereo not drawn) [Compound 1535] | 3.27^[a] |  |  |
| CCOC(=O)C(C#N)=C(NC(C)c1nc(C)cs1)c1cccnc1Cl (stereo not drawn) [Compound 1536] | 2.88^[a] |  |  |

| SMILES | Log P (pH 2.7) | Log P (pH 2.3) | Log P (pH 7.5) |
| --- | --- | --- | --- |
| CCOC(=O)C(C#N)=C(Nc1cccc2cn(C)nc12)c1cccnc1Cl [Compound 1537] | 2.68^[a] |  |  |
| CCOC(=O)C(C#N)=C(NC(C)C(=O)OCc1ccccc1)c1cccnc1Cl (stereo not drawn) [Compound 1539] | 3.53^[a] |  |  |
| CCOC(=O)C(C#N)=C(NC(C)C(C)C)c1cccnc1-c1ccc(F)cc1 (stereo not drawn) [Compound 1541] |  | 3.7 |  |
| CCOC(=O)C(C#N)=C(NCc1ccc(C)c(C)n1)c1cnn(C)c1Cl [Compound 1542] | 1.66^[a] |  |  |
| CCOC(=O)C(C#N)=C(NC(C)C(C)C)c1cccnc1Br (stereo not drawn) [Compound 1545] |  | 3.27 |  |
| CCOC(=O)C(C#N)=C(NC1(c2ccccc2)CCC1)c1cccnc1Cl [Compound 1550] | 3.73^[a] |  |  |
| CCOC(=O)C(C#N)=C(NC1(C(=O)OCC)CCC1)c1cccnc1Cl [Compound 1551] | 3.17^[a] |  |  |
| CCOC(=O)C(C#N)=C(Nc1cccc2scnc12)c1cccnc1Cl [Compound 1553] | 2.61^[a] |  |  |
| CCOC(=O)C(C#N)=C(NCc1ncccc1C(F)(F)F)c1cccnc1Cl [Compound 1554] | 3^[a] |  |  |
| CCOC(=O)C(C#N)=C(Nc1cccc2oc(C)nc12)c1cccnc1Cl [Compound 1555] | 3^[a] |  |  |
| CCOC(=O)C(C#N)=C(Nc1cccc2nsnc12)c1cccnc1Cl [Compound 1556] | 3.17^[a] |  |  |
| CCOC(=O)C(C#N)=C(NC(C)c1c(Cl)cccc1Cl)c1cnn(C)c1Cl (stereo not drawn) [Compound 1559] | 3.78^[a] |  |  |
| CCOC(=O)C(C#N)=C(NC(C)C(C)C)c1cn(C)nc1C(Cl)Cl (stereo not drawn) [Compound 1562] | 3.46^[a] |  |  |
| CCOC(=O)C(C#N)=C(NC(C)c1nccs1)c1cn(C)nc1C(Cl)Cl (stereo not drawn) [Compound 1564] | 2.75^[a] |  |  |
| CCOC(=O)C(C#N)=C(NC1CCC1)c1cn(C)nc1C(Cl)Cl [Compound 1566] | 3.09^[a] |  |  |
| CCOC(=O)C(C#N)=C(NC(C)COC)c1cn(C)nc1C(Cl)Cl (stereo not drawn) [Compound 1567] | 2.76^[a] |  |  |
| CCOC(=O)C(C#N)=C(NC(C)C(C)C)c1cccnc1-c1cccc(Cl)c1 (stereo not drawn) [Compound 1568] |  | 4.07 | 4.09 |
| CCOC(=O)C(C#N)=C(NC(C)C1CC1)c1cccnc1OCc1ccccc1 (stereo not drawn) [Compound 1570] |  | 3.08^[c]; 3.08^[b] | 3.08^[c]; 3.08^[b] |
| CC(NC(=C(C#N)C(=O)O)c1cccnc1Cl)c1ccccn1 (stereo not drawn) [Compound 1571] | 1.37^[a] |  |  |
| C=CCOC(=O)C(C#N)=C(NC(C)c1ccccn1)c1cccnc1Cl (stereo not drawn) [Compound 1572] | 2.66^[a] |  |  |
| CCOC(=O)C(C#N)=C(NC(C)C(=O)NC)c1cn(C)nc1C(Cl)Cl (stereo not drawn) [Compound 1573] | 3.9^[a] |  |  |
